System: SKH-1 mouse skin
Assay: NanoString nCounter gene expression analysis (Mouse Inflammation V2 panel) of SKH-1 mouse skin
Format: in vivo
Protocol: UVB exposure was performed on AP-1 luciferase reporter mice on the SKH-1 genetic background at a dose of 2.75 kJ/m2 using FS40 bulbs (Q-Lab Corporation) as described before with the modification that mice were imaged 24 hr post UVB exposure using whole body bioluminescence instead of 48 hr post UVB using ear punches. SSL irradiation of SKH-1 mice (Charles River Laboratories, strain code 477) at a dose of 90 kJ/m2 UVA/6 kJ/m2 UVB was performed using UVA-340 bulbs (Q-Lab Corporation) as described before.
SKH-1 mouse skin [full thickness, 3 biological samples (i.e., 3 mice per treatment group)] treated either with vehicle (acetone) or 8 mM BMS-202 (all 3 times: 24 hr pre, 1 hr pre, and immediately post) and harvested 24 hr after acute SSL. First, total mRNA was prepared using the RNeasy Mini kit (Qiagen). Next, 100 ng was used for NanoString® nCounter® analysis (using the ‘Mouse Inflammation V2’ panel; probing 254 genes, NanoString® Technologies) comparing gene expression between treatment groups. Total mRNA was hybridized with the ‘Mouse Inflammation V2’ code set at 65° C. overnight. Further purification and binding of the hybridized probes to the optical cartridge was performed on the nCounter® Prep Station, and finally, the cartridge was scanned on the nCounter® Digital Analyzer. RCC files were then imported into nSolver4.0 software (NanoString® Technologies) and checked for data quality using default QC settings; all samples passed data quality QC. All samples were normalized using the geometric mean of the housekeeper genes. Expression ratios were calculated by dividing the mean values of all samples in one experimental group (UV+BMS-202) by the mean values of all samples in the reference group (UV+vehicle control). For data analysis, low count threshold value was 200. For heatmap depiction (FIGS. 3A and 3B, FIG. 5 and FIG. 6), a z-score for a specific gene indicates the number of SDs away from the mean of expression in the reference samples. For ‘pathway score analysis’ (FIGS. 4A, 4B, and 4C), each sample's gene expression profile was then condensed into a small set of pathway scores using nCounter® Advanced Analysis software (version 2.0.115). Pathway scores were fit using the first principal component of each gene set's data, oriented such that each pathway score has positive weights for at least half its genes.
Individual samples were run in triplicate format of biological replicates, and data analysis was performed using the nSolver analysis software (4.0). For p-value adjustment (Benjamini-Yekutieli False Discovery Rate; p-value threshold: 0.05), nCounter® Advanced Analysis software (version 2.0.115) was used. Nonparametric data analysis of murine experimentation was performed using the Mann-Whitney test. Differences between groups were considered significant at *p<0.05.

[1] = 8 mM topical + SSL vs SSL control, SKH-1 skin, 24 hr
[2] = 8 mM topical + SSL vs vehicle + SSL

## COc1nc(OCc2cccc(-c3ccccc3)c2C)ccc1CNCCNC(C)=O [BMS-202]
[1]
  Bcl6 fold change: −12.8 fold
  C1qa fold change: −4.5 fold
  C3 fold change: −9.0 fold
  C4a fold change: −5.9 fold
  C8b fold change: 26.2 fold
  C9 fold change: 18.6 fold
  Ccl2 fold change: −5.3 fold
  Ccl2 fold downregulation: 5.3 fold
  Ccl7 fold change: −8.1 fold
  Ccl7 fold downregulation: 8.1 fold
  Ccl8 fold change: −5.0 fold
  Ccl8 fold downregulation: 5.0 fold
  Ccr3 fold change: 20.5 fold
  Cdc42 fold change: −4.6 fold
  Cebpb fold change: −8.3 fold
  Cfl1 fold change: −10.8 fold
  Chi3l3 fold change: 10.5 fold
  Crp fold change: 23.9 fold
  Cxcl1 fold change: −4.1 fold
  Cxcl1 fold downregulation: 4.1 fold
  Cxcl3 fold change: −9.1 fold
  Cxcl5 fold change: −11.6 fold
  Cxcl5 fold downregulation: 11.6 fold
  Cxcl10 fold change: 4.3 fold
  Cysltr2 fold change: 14.4 fold
  Defa-rs1 fold change: 51.0 fold
  Fos fold change: −4.1 fold
  Fos fold downregulation: 4.1 fold
  Fxyd2 fold change: −17.0 fold
  Gnas fold change: −11.5 fold
  Gnas fold downregulation: 11.5 fold
  Gnb1 fold change: −5.8 fold
  Gnb1 fold downregulation: 5.8 fold
  Grb2 fold change: −4.5 fold
  H2-Eb1 fold change: −14.2 fold
  Hif1a fold change: −9.6 fold
  Hif1a fold downregulation: 9.6 fold
  II1r1 fold downregulation: 5.5 fold
  Ifi44 fold change: 5.2 fold
  Ifna1 fold change: 89.3 fold
  Ifnb1 fold change: 16.4 fold
  Ifng fold change: 10.6 fold
  Il1b fold downregulation: 2.9 fold
  Il1r1 fold change: −5.5 fold
  Il1rap fold downregulation: 3.6 fold
  Il6ra fold downregulation: 3.4 fold
  Il9 fold change: 28.9 fold
  Il10rb fold downregulation: 3.2 fold
  Il18 fold change: −20.0 fold
  Il18 fold downregulation: 20.0 fold
  Il21 fold change: 50.1 fold
  Il23a fold change: 6.5 fold
  Irf1 fold change: −4.1 fold
  Itgb2 fold change: −8.2 fold
  Jun fold change: −5.9 fold
  Jun fold downregulation: 5.9 fold
  Kng1 fold change: 14.9 fold
  Ly96 (coreceptor of Tlr4) fold downregulation: 11.0 fold
  Ly96 fold change: −11.0 fold
  Map2k1 fold change: −5.8 fold
  Map2k1 fold downregulation: 5.8 fold
  Map2k4 fold change: −6.4 fold
  Map2k4 fold downregulation: 6.4 fold
  Map3k1 fold change: −4.5 fold
  Map3k1 fold downregulation: 4.5 fold
  Map3k5 fold change: −6.4 fold
  Map3k5 fold downregulation: 6.4 fold
  Map3k7 fold downregulation: 3.7 fold
  Mapk1 fold downregulation: 3.7 fold
  Mapk3 fold change: −6.3 fold
  Mapk3 fold downregulation: 6.3 fold
  Mapk8 fold downregulation: 3.1 fold
  Mapk14 fold change: −5.9 fold
  Mapk14 fold downregulation: 5.9 fold
  Mapkapk2 fold change: −5.2 fold
  Mapkapk2 fold downregulation: 5.1 fold
  Mbl2 fold change: 15.7 fold
  Mef2c fold change: −64.9 fold
  Mmp3 fold downregulation: 3.8 fold
  Mmp9 fold change: −8.2 fold
  Mmp9 fold downregulation: 8.2 fold
  Mrc1 fold change: −5.4 fold
  Mx1 fold change: 36.2 fold
  Mx2 fold change: 5.3 fold
  Myc fold downregulation: 3.3 fold
  Myd88 fold downregulation: 2.7 fold
  Nf2el2 fold downregulation: 3.5 fold
  Nfatc3 fold change: −4.1 fold
  Nfatc3 fold downregulation: 4.1 fold
  Nfkb1 fold change: −5.9 fold
  Nfkb1 fold downregulation: 5.9 fold
  Nod2 fold change: −5.1 fold
  Nos2 fold change: 6.1 fold
  Nr3c1 fold change: −4.9 fold
  Oas1a fold change: −4.3 fold
  Pdgfa fold change: −5.2 fold
  Pdgfa fold downregulation: 5.2 fold
  Ppp1r12b fold change: −12.1 fold
  Ptgs1 fold downregulation: 3.1 fold
  Ptgs2 fold downregulation: 1.7 fold
  Rac1 fold change: −7.3 fold
  Rac1 fold downregulation: 7.3 fold
  Raf1 fold change: −5.7 fold
  Raf1 fold downregulation: 5.7 fold
  Rhoa fold change: −5.9 fold
  Shc1 fold change: −7.4 fold
  Stat1 fold downregulation: 2.8 fold
  Stat2 fold downregulation: 2.5 fold
  Stat3 fold change: −7.4 fold
  Stat3 fold downregulation: 7.4 fold
  Tcf4 fold change: −4.4 fold
  Tgfb1 fold change: −13.3 fold
  Tgfb1 fold downregulation: 13.3 fold
  Tgfb3 fold downregulation: 2.7 fold
  Tlr2 fold downregulation: 2.4 fold
  Tlr8 fold downregulation: 3.4 fold
  Tlr9 fold change: 8.3 fold
  Tnfsf14 fold change: 4.8 fold
  Trem2 fold change: −4.5 fold
  Tslp fold change: 4.3 fold
  Tyrobp fold change: −4.9 fold
[2]
  pathway score: immune response: upregulated
  pathway scores: activation of NFκB, innate immune response, chemokine activity, inflammatory response, angiogenesis: downregulated

— US20260240826A1, “COMPOSITIONS FOR PD-L1 INHIBITION AND METHODS OF USE THEREOF” (ARIZONA BOARD OF REGENTS ON BEHALF OF THE UNIVERSITY OF …, priority 2023, published 2026)
